Test results published in patent US8304557B2, “Fused heterocycle derivatives and use thereof” (Takeda Pharmaceutical Company Limited, priority 2007, dated 2012).

Assays:
[1] = test system: phosphorylated MEK1/2 in human colon cancer cell HT-29; experiment: Colon cancer cell HT-29 intracellular MEK phosphorylation inhibitory action in vitro (Western blot); type: cell-based; details: HT-29 cells, 2 hr treatment, anti-phosphorylated MEK1/2 (Ser217/221), read-out: IC50 (nM), MEK phosphorylation inhibition
Method: A cell suspension (500 μL) of human colon cancer cell HT-29 was plated in a 48-well plate (100,000 cells/well), and the cells were cultured overnight at 37° C. in the presence of 5% CO2, treated with a test compound (250 μL/well) diluted in 3-fold dilution series and cultured for two more hours. After 2 hr, the culture medium containing the test compound was removed, and the cells were lysed with SDS sample buffer (100 μL/well) and heated at 95° C. for 5 min. Thereafter, the cells were applied to SDS-PAGE, and the protein was transferred onto Sequi-Blot™ PVDF Membrane (Bio-Rad, Richmond, Calif.) by the Western blot method. The cells were blocked with a block-Ace solution (Snow Brand Milk Products Co., Ltd) dissolved in phosphate buffer to 5% W/V, and reacted overnight with anti-phosphorylated MEK1/2 (Ser217/221) (Cell signaling #9121) diluted 1000-fold with phosphate buffer containing 0.4% block-Ace. […] The membrane was washed in the same manner as above, chemical luminescence of a phosphorylated MEK1/2 protein labeled with the antibody, which was caused by ECL-plus Detection Reagent (Amersham bioscience), was detected by Luminescent Image Analyzer LAS-1000 (FUJIFILM Corporation).

[2] = test system: human colon cancer cell HT-29; experiment: Colon cancer cell HT-29 growth suppressive action in vitro (SRB); type: cell-based; details: 72 h, HT-29 cells, cultured for 3 days with compound, SRB staining, read-out: IC50 (nM), HT-29 growth suppression
Method: A cell suspension (100 μL, 3,000 cells/well) of human colon cancer cell HT-29 (purchased from ATCC) was plated in a 96-well plate, and the cells were cultured at 37° C. in a 5% carbon dioxide gas incubator. The next day, 2-fold serial dilution of each test compound solution (diluted from maximum concentration 20 μM) (100 μL) was added, and the cells were cultured for 3 days. The culture medium containing the test compound was removed, and the cells were washed with phosphate buffer (PBS). A 50% trichloroacetic acid solution was added to the final concentration of 10% (v/v), and the mixture was stood overnight at 4° C., whereby the cells were fixed to the plate. Then, a dye SRB 0.4% (W/V) solution (dissolved in 1% acetic acid) was added at 50 μl/well, whereby the cell protein was fixed and stained (Skehan et al., Journal Of National Cancer Institute, vol. 82, pp. 1107-1112, 1990). The cells were washed 3 times with 1% acetic acid solution (200 μL/well), and 100 μL of an extract (10 mM Tris buffer) was added to extract the dye. The absorbance at an absorption wavelength […] was measured, and cell amount was measured as a protein amount.

Question: Which IC50 [1] does the source give for `CC(C)(C#N)c1cccc(C(=O)Nc2cccc(Oc3ccc4nc(NC(=O)C5CC5)cn4c3)c2)c1` [Example 228, 3-(1-cyano-1-methylethyl)-N-[3-({2-[(cyclopropylcarbonyl)amino]imidazo[1,2-a]pyridin-6-yl}oxy)phenyl]benzamide] here?
Answer: The IC50 was under 500 nM.

Question: What about the IC50 [2] of the same compound?
Answer: Its IC50 is under 500 nM.

Question: For `N#CC1(c2cccc(C(=O)Nc3cccc(Oc4ccc5nc(NC(=O)C6CC6)nn5c4)c3)c2)CC1` [Example 232, 3-(1-cyanocyclopropyl)-N-[3-({2-[(cyclopropylcarbonyl)amino][1,2,4]triazolo[1,5-a]pyridin-6-yl}oxy)phenyl]benzamide], which IC50 [1] is on record?
Answer: The IC50 was under 500 nM.

Question: How did the IC50 [2] turn out when `Cc1ccc(NC(=O)c2cccc(C(C)(C)C#N)c2)cc1Oc1ccc2nc(NC(=O)C3CC3)nn2c1` [Example 233, 3-(1-cyano-1-methylethyl)-N-[3-({2-[(cyclopropylcarbonyl)amino][1,2,4]triazolo[1,5-a]pyridin-6-yl}oxy)-4-methylphenyl]benzamide] was run?
Answer: The IC50 was under 500 nM.
